Common to all, as to type: in vivo, human
For test [1], the system named is consumer panel (company employees). As to the kind of experiment: Sweetness perception threshold in lemon poppy seed muffin (2-AFC). The settings on record: n = 30. The source says: Additional threshold test data found for Lemon Poppy Seed Muffin provided in Appendix. [table] [table]
The test system is the same in test [2]. Put plainly: Sweetness perception threshold in neutral water (2-AFC). The settings on record: n = 30. From the text:
Therefore we selected 50 ppm of PCS-3028 as the recognition threshold concentration. [table] This is a re-evaluation of the recognition threshold concentration to follow methodology outlined in section 1.4.2 of the “Guidance for the Sensory Testing of Flavorings with Modifying Properties within the FEMA GRAS™ Program”.

For test [3] the test system is unchanged. As to the kind of experiment: Sweetness perception threshold in puffed corn breakfast cereal (2-AFC). As for the experimental part: […] As recommended by the FEMA Sensory guidance document,—Guidance for the Sensory Testing of Flavorings with Modifying Properties, within the FEMA GRAS™ Program, 2013—the recognition threshold concentration was determined using 2-alternateve forced choice (2-AFC) methodology.
This is an evaluation of the recognition threshold concentration to follow methodology outlined in section 1.4.2 of the “Guidance for the Sensory Testing of Flavorings with Modifying Properties within the FEMA GRAS™ Program”.
Sample Preparation: The puffed corn cereal (with no added sugar or flavor) purchased from local stores and sprayed with aqueous sucrose solutions using a portable atomizer to create a fine mist while tumbling the dry cereal grains. All the samples were dried to remove the added water from the samples. About 3 g of cereal was portioned into appropriately labeled blind-coded plastic 2 oz soufflé cup with lids. Samples were served dry to all panelists.

Where [4] appears, read: 4% sugar vs 70 ppm PCS3028 in muffins.
[5] abbreviates: 4% sugar vs 150 ppm PCS3028 in muffins.
The mark [6] stands for this setting: 4% sugar vs 250 ppm PCS3028 in muffins.
The mark [7] stands for this setting: 1.5% sucrose vs 30 ppm PCS-3028 in water.
[8] abbreviates: 1.5% sucrose vs 50 ppm PCS-3028 in water.
Setting [9] is: 1.5% sucrose vs 70 ppm PCS-3028 in water.
Setting [10] is: Puffed Corn Cereal + vs + 250 ppm PCS-3028, n = 30.

These results are taken from patent publication US12677848B2, “Stevia flavor compositions” (PURECIRCLE USA INC., priority 2019, dated 2026).

Regarding `OC[C@H]1O[C@@](CO)(O[C@H]2O[C@H](CO)[C@@H](O)[C@H](O)[C@H]2O)[C@@H](O)[C@@H]1O` [Sucrose], the “Frequency (sample named as sweeter)” value in test [1] (setting [4]) is 76.7%; in test [1] (setting [5]), 70%; in test [1] (setting [6]) it was 33.3%. For the same compound, the “PC (panelists naming the sample as sweeter)” value is 23 in test [1] (setting [4]); 21 in test [1] (setting [5]); 10 in test [1] (setting [6]); 29 in test [2] (setting [7]); 21 in test [2] (setting [8]); 3 in test [2] (setting [9]). In addition, the “PC (panelists naming the sample as sweeter)” value in test [3] (Puffed Corn Cereal + vs + 150 ppm PCS-3028, n = 30) is on record as 28; in test [3] (setting [10]), 13. The “% Frequency (sample named as sweeter)” value in test [2] (setting [7]) was determined as 96.7%; in test [2] (setting [9]), 10%; in test [3] (Puffed Corn Cereal + vs + 150 ppm PCS-3028, n = 30, listed as Sugar), 93.3%; in test [3] (setting [10]) it was 43.3%. The “Percent Frequency (sample named as sweeter)” value in test [2] (setting [8]) was determined as 70.0%.
